From patent US20140093513A1, “METHODS OF LOWERING PROPROTEIN CONVERSATE SUBTILISIN/KEXIN TYPE 9 (PCSK9)” (Catabasis Pharmaceuticals, Inc., priority 2012, published 2014)

System: PCSK9
Assay: PCSK9 secretion assay in HepG2 cells (PCSK9 ELISA)
Format: cell-based
Conditions: HepG2 cells, 10 μM atorvastatin, FIG. 2
Procedure: HepG2 cells (from ATCC, Catalog no. HB-8065) were maintained in DMEM (Invitrogen) supplemented with 10% fetal bovine serum (Invitrogen). The day prior to the PCSK9 assay, cells are seeded in 96-well collagen coated plates at 25,000 cells/well.
The compounds of the invention were stored at −20° C. until used. The test article compound was dissolved in 100% ethanol to a 50 mM stock solution. This was then diluted in FBS to a final concentration of 1 mM. This solution was placed in a sonicating water bath for 30 minutes. Subsequent dilutions were then made in FBS supplemented with an equivalent volume of ethanol and mixed by vortexing.
HepG2 cells were seeded onto a collagen coated 96-well plate (Becton Dickinson, Catalog no. 35-4407) the day prior to the assay, as described above. The next day, the cell medium was removed, washed once with 100 μL serum free DMEM to remove any residual PCSK9, and replaced with 90 μL of serum free DMEM. Ten microliters of each compound concentration prepared in FBS was then added. Each concentration of compound was tested in triplicate. The compound was incubated with the cells overnight for 16 hours. Following this incubation, 10 μL of AlamarBlue was added to each well and cells incubated for another 2 hours. The plates were then removed and AlamarBlue fluorescence was measured (excitation, 550 nm and […]) to assess cell viability. Cell culture supernatant was then diluted […] 1×RDSP Calibrator Diluent and PCSK9 ELISA was then performed with 50 μL of this diluted sample, as per the manufacturer's instructions. The ELISA was measured on a Victor X5 multilabel plate reader (PerkinElmer) at an absorbance of 450 nm with background correction measured at 550 nm (The PCSK9 Elisa kits can be purchased from R&D System, Catalog no. DPC900).
Alternatively, an IC50 could also be obtained when this type of assay was carried out using at least 6 different concentrations of the test compounds. Table 1 lists the IC50 values for the compounds tested in this assay.

SMILES | PCSK9 secretion
CC(C)c1c(C(=O)Nc2ccccc2)c(-c2ccccc2)c(-c2ccc(F)cc2)n1CC[C@@H](O)C[C@@H](O)CC(=O)O [atorvastatin, reference compound] | increases PCSK9 secretion

Same assay, conditions: HepG2 cells, 16 hours incubation, at least 6 concentrations

IC50 | SMILES
< 25 µM | CC/C=C\C/C=C\C/C=C\C/C=C\C/C=C\CCCC(=O)NCCNC(=O)C(C)(C)Oc1ccc(Cl)cc1 [II-33, (5Z,8Z,11Z,14Z,17Z)—N-(2-(2-(4-chlorophenoxy)-2-methylpropanamido)ethyl)icosa-5,8,11,14,17-pentaenamide]
> 50 µM | CC/C=C\C/C=C\C/C=C\C/C=C\C/C=C\CCCC(=O)N1CCN(C(=O)c2ccccc2NC(=O)c2cccnc2)CC1 [Compound I-60, N-(2-(4-((5Z,8Z,11Z,14Z,17Z)-icosa-5,8,11,14,17-pentaenoyl)piperazine-1-carbonyl)phenyl)nicotinamide]
25 to 50 µM | CC/C=C\C/C=C\C/C=C\C/C=C\C/C=C\CCCC(=O)N1CCC(CN(C)C(=O)c2cnc(C)c[n+]2[O-])CC1 [VII-16, 2-(((1-((5Z,8Z,11Z,14Z,17Z)-icosa-5,8,11,14,17-pentaenoyl)piperidin-4-yl)methyl)(methyl)carbamoyl)-5-methylpyrazine 1-oxide]
< 25 µM | CC/C=C\C/C=C\C/C=C\C/C=C\C/C=C\C/C=C\CCC(=O)NCCOCCOCCOCCOC [III-3, (4Z,7Z,10Z,13Z,16Z,19Z)—N-(2,5,8,11-tetraoxamidecan-13-yl)docosa-4,7,10,13,16,19-hexaenamide]
< 25 µM | CC/C=C\C/C=C\C/C=C\C/C=C\C/C=C\CCCC(=O)N1CCN(C(=O)C(C)(C)Oc2ccc(C(=O)c3ccc(Cl)cc3)cc2)CC1 [VII-42, (5Z,8Z,11Z,14Z,17Z)-1-(4-(2-(4-(4-chlorobenzoyl)phenoxy)-2-methylpropanoyl)piperazin-1-yl)icosa-5,8,11,14,17-pentaen-1-one]
> 50 µM | CC/C=C\C/C=C\C/C=C\C/C=C\C/C=C\CCCC(=O)NCCNC(=O)c1cccnc1-c1ccccc1 [VI-4, N-(2-((5Z,8Z,11Z,14Z,17Z)-icosa-5,8,11,14,17-pentaenamido)ethyl)-2-phenylnicotinamide]
25 to 50 µM | CC/C=C\C/C=C\C/C=C\C/C=C\C/C=C\CCCC(=O)NCCNC(=O)CNC(=O)c1cccnc1 [Compound I-30, N-(2-((2-((5Z,8Z,11Z,14Z,17Z)-icosa-5,8,11,14,17-pentaenamido)ethyl)amino)-2-oxoethyl)nicotinamide]
< 25 µM | CC/C=C\C/C=C\C/C=C\C/C=C\C/C=C\CCCC(=O)N1CCC(CNC(=O)c2cccnc2)CC1 [Compound I-31, N-((1-((5Z,8Z,11Z,14Z,17Z)-icosa-5,8,11,14,17-pentaenoyl)piperidin-4-yl)methyl)nicotinamide]
< 25 µM | CC/C=C\C/C=C\C/C=C\C/C=C\C/C=C\C/C=C\CCC(=O)N(C)CCNC(=O)c1cccnc1 [Compound I-14, N-(2-((4Z,7Z,10Z,13Z,16Z,19Z)—N-methyldocosa-4,7,10,13,16,19-hexaenamido)ethyl)nicotinamide]
< 25 µM | CC/C=C\C/C=C\C/C=C\C/C=C\C/C=C\CCCC(=O)N1CCC(CN(C)C(=O)C2=CC(=O)C(C)(c3ccccc3)O2)CC1 (stereo not drawn) [VII-8, N-((1-((5Z,8Z,11Z,14Z,17Z)-icosa-5,8,11,14,17-pentaenoyl)piperidin-4-yl)methyl)-N,5-dimethyl-4-oxo-5-phenyl-4,5-dihydrofuran-2-carboxamide]
> 50 µM | CC/C=C\C/C=C\C/C=C\C/C=C\C/C=C\C/C=C\CCC(=O)NCCOCCOCCOC [III-1, (4Z,7Z,10Z,13Z,16Z,19Z)—N-(2-(2-(2-methoxyethoxy)ethoxy)ethyl)docosa-4,7,10,13,16,19-hexaenamide]
< 25 µM | CC/C=C\C/C=C\C/C=C\C/C=C\C/C=C\C/C=C\CCC(=O)NCCNC(=O)C(C)(C)CCCOc1cc(C)ccc1C [II-34, (4Z,7Z,10Z,13 Z,16Z,19Z)—N-(2-(5-(2,5-dimethylphenoxy)-2,2-dimethylpentanamido)ethyl)docosa-4,7,10,13,16,19-hexaenamide]
< 25 µM | CC/C=C\C/C=C\C/C=C\C/C=C\C/C=C\CCCC(=O)N1CCC(NC(=O)C(C)(C)Oc2ccc(C(=O)c3ccc(Cl)cc3)cc2)CC1 [VII-19, 2-(4-(4-chlorobenzoyl)phenoxy)-N-(1-((5Z,8Z,11Z,14Z,17Z)-icosa-5,8,11,14,17-pentaenoyl)piperidin-4-yl)-2-methylpropanamide]
25 to 50 µM | CC/C=C\C/C=C\C/C=C\C/C=C\C/C=C\CCCC(=O)NCCNC(=O)CCNC(=O)c1cccnc1 [Compound I-26, N-(3-((2-((5Z,8Z,11Z,14Z,17Z)-icosa-5,8,11,14,17-pentaenamido)ethyl)amino)-3-oxopropyl)nicotinamide]
< 25 µM | CC/C=C\C/C=C\C/C=C\C/C=C\C/C=C\CCCC(=O)N1CC[C@H](NC(=O)C(C)(C)Oc2ccc(C(=O)c3ccc(Cl)cc3)cc2)C1 [VII-22, 2-(4-(4-chlorobenzoyl)phenoxy)-N—((S)-1-((5Z,8Z,11Z,14Z,17Z)-icosa-5,8,11,14,17-pentaenoyl)pyrrolidin-3-yl)-2-methylpropanamide]
25 to 50 µM | CC/C=C\C/C=C\C/C=C\C/C=C\C/C=C\CCCC(=O)NCCNC(=O)c1cncc(-c2ccccc2)c1 [VI-2, N-(2-((5Z,8Z,11Z,14Z,17Z)-icosa-5,8,11,14,17-pentaenamido)ethyl)-5-phenylnicotinamide]
< 25 µM | CC/C=C\C/C=C\C/C=C\C/C=C\C/C=C\CCCC(=O)NCCNC(=O)c1ccc(CCN2CCCC2)nc1 [Compound V-8, N-(2-((5Z,8Z,11Z,14Z,17Z)-icosa-5,8,11,14,17-pentaenamido)ethyl)-6-(2-(pyrrolidin-1-yl)ethyl)nicotinamide]
< 25 µM | CC/C=C\C/C=C\C/C=C\C/C=C\C/C=C\CCCC(=O)N1CCC[C@@H]1CNC(=O)c1cnc(C)c[n+]1[O-] [VII-13, 2-((((R)-1-((5Z,8Z,11Z,14Z,17Z)-icosa-5,8,11,14,17-pentaenoyl)pyrrolidin-2-yl)methyl)carbamoyl)-5-methylpyrazine 1-oxide]
< 25 µM | CC/C=C\C/C=C\C/C=C\C/C=C\C/C=C\CCCC(=O)NC1CCN(C(=O)C(C)(C)Oc2ccc(C(=O)c3ccc(Cl)cc3)cc2)CC1 [VII-25, (5Z,8Z,11Z,14Z,17Z)—N-(1-(2-(4-(4-chlorobenzoyl)phenoxy)-2-methylpropanoyl)piperidin-4-yl)icosa-5,8,11,14,17-pentaenamide]

SMILES | IC50
CC/C=C\C/C=C\C/C=C\C/C=C\C/C=C\CCCC(=O)NCCOCCOCCOC [III-2, (5Z,8Z,11Z,14Z,17Z)—N-(2-(2-(2-methoxyethoxy)ethoxy)ethyl)icosa-5,8,11,14,17-pentaenamide] | > 50 µM
CC/C=C\C/C=C\C/C=C\C/C=C\C/C=C\CCCC(=O)NC[C@H]1CCCN1C(=O)c1cccnc1 [Compound I-33, (5Z,8Z,11Z,14Z,17Z)—N—(((R)-1-nicotinoylpyrrolidin-2-yl)methyl)icosa-5,8,11,14,17-pentaenamide] | < 25 µM
CC/C=C\C/C=C\C/C=C\C/C=C\C/C=C\CCCC(=O)NCCNC(=O)c1cnccc1O [VI-1, 4-hydroxy-N-(2-((5Z,8Z,11Z,14Z,17Z)-icosa-5,8,11,14,17-pentaenamido)ethyl)nicotinamide] | > 50 µM
CC/C=C\C/C=C\C/C=C\C/C=C\C/C=C\C/C=C\CCC(=O)NCCNC(=O)c1cccnc1 [Compound I-7, N-(2-(4Z,7Z,10Z,13Z,16Z,19Z)-docosa-4,7,10,13,16,19-hexaenamidoethyl)nicotinamide] | < 25 µM
CC/C=C\C/C=C\C/C=C\C/C=C\C/C=C\CCCC(=O)NCCNC(=O)c1ccncc1 [II-8, N-(2-((5Z,8Z,11Z,14Z,17Z)-icosa-5,8,11,14,17-pentaenamido)ethyl)isonicotinamide] | > 50 µM
CC/C=C\C/C=C\C/C=C\C/C=C\C/C=C\CCCC(=O)NCCNC(=O)c1cccnc1F [VI-7, 2-fluoro-N-(2-((5Z,8Z,11Z,14Z,17Z)-icosa-5,8,11,14,17-pentaenamido)ethyl)nicotinamide] | < 25 µM
CC/C=C\C/C=C\C/C=C\C/C=C\C/C=C\CCCC(=O)NCCNC(=O)c1cncc(O)c1 [VI-5, 5-hydroxy-N-(2-((5Z,8Z,11Z,14Z,17Z)-icosa-5,8,11,14,17-pentaenamido)ethyl)nicotinamide] | 25 to 50 µM
CC/C=C\C/C=C\C/C=C\C/C=C\C/C=C\CCCC(=O)N1CCC(NC(=O)c2cccnc2)CC1 [Compound I-22, N-(1-((5Z,8Z,11Z,14Z,17Z)-icosa-5,8,11,14,17-pentaenoyl)piperidin-4-yl)nicotinamide] | < 25 µM
CC/C=C\C/C=C\C/C=C\C/C=C\C/C=C\CCCC(=O)Nc1nc(C)ncc1CNC(=O)c1cccnc1 [Compound I-64, N-((4-((5Z,8Z,11Z,14Z,17Z)-icosa-5,8,11,14,17-pentaenamido)-2-methylpyrimidin-5-yl)methyl)nicotinamide] | 25 to 50 µM

Same assay, conditions: HepG2 cells, highest tested concentration of 50 μM, FIG. 1

SMILES | activity toward PCSK9
CC/C=C\C/C=C\C/C=C\C/C=C\C/C=C\CCCC(=O)NCCNC(C)=O [Compound A, (5Z,8Z,11Z,14Z,17Z)—N-(2-acetamidoethyl)icosa-5,8,11,14,17-pentaenamide, reference compound] | essentially no activity
